{
  "source": "patent US4328214A",
  "about": "“Cyclopeptides and pharmaceutical preparations thereof and also processes for their manufacture” (Ciba-Geigy Corporation, priority 1979, dated 1982)",
  "test_system": "insulin and glucagon release",
  "test": "determination of insulin and glucagon release using the isolated perfused pancreas of a rat",
  "conditions": "multiple of the reference's inhibitory effect",
  "data": [
    {"substance": "[D-Trp^8 ; β-(1-naphthyl)-Gaba^12 ]-cyclosomatostatin(5-12)-octapeptide [formula ID diastereoisomeric mixture]", "values": [
      {"measurement": "inhibitory effect relative to [D-Trp^8 ; Gaba^12 ]-cyclosomatostatin(5-12)-octapeptide (formula M, p=1)", "value": "approximately 10 times"}
    ]}
  ]
}
